Reference: patent US20100261877A1, “PROCESS FOR ISOLATING THERAPEUTIC PEPTIDES” (priority 2009, published 2010)
Where a SMILES comes first, the peptide text is derived from it. Bridges are numbered along the chain shown (N, C = ends).

Columns and labels:
[1] = biological target: T1, guanylate cyclase type C receptor (GCC) (Homo sapiens, UniProt P25092); settings: in vitro, varying concentrations; cited from earlier work
T1 construct: endogenous in cells

[2] = Solubility of SEQ ID NO. 1 in aqueous isopropanol solution; type: physicochemical
Text: 1 that is able to be dissolved in aqueous isopropanol solution, depending on the v/v % isopropanol:water. The very sharp increase in solubility between 40-60% isopropanol was very unexpected and the discovery of this unexpected result allowed for the successful isolation of SEQ ID NO. 1 by precipitation which was necessary for a viable large manufacturing scale-up required for commercial production.

[3] = Solubility of SEQ ID NO. 1 in aqueous ethanol solution; type: physicochemical
Text: The above general procedures were followed replacing isopropyl alcohol (IPA) with ethanol.
1 that is able to be dissolved in the aqueous ethanol solution, depending on the v/v % ethanol:water. The very sharp increase in solubility between 50-70 ethanol was very unexpected and the discovery of this unexpected result allowed for the successful isolation of SEQ ID NO. 1 by precipitation which was necessary for a viable large manufacturing scale-up required for commercial production.

[4] = system: small bowel motility, fluid secretion, visceral pain; settings: oral, mice and rats; cited from earlier work

T1 sequence (P25092 24-1073): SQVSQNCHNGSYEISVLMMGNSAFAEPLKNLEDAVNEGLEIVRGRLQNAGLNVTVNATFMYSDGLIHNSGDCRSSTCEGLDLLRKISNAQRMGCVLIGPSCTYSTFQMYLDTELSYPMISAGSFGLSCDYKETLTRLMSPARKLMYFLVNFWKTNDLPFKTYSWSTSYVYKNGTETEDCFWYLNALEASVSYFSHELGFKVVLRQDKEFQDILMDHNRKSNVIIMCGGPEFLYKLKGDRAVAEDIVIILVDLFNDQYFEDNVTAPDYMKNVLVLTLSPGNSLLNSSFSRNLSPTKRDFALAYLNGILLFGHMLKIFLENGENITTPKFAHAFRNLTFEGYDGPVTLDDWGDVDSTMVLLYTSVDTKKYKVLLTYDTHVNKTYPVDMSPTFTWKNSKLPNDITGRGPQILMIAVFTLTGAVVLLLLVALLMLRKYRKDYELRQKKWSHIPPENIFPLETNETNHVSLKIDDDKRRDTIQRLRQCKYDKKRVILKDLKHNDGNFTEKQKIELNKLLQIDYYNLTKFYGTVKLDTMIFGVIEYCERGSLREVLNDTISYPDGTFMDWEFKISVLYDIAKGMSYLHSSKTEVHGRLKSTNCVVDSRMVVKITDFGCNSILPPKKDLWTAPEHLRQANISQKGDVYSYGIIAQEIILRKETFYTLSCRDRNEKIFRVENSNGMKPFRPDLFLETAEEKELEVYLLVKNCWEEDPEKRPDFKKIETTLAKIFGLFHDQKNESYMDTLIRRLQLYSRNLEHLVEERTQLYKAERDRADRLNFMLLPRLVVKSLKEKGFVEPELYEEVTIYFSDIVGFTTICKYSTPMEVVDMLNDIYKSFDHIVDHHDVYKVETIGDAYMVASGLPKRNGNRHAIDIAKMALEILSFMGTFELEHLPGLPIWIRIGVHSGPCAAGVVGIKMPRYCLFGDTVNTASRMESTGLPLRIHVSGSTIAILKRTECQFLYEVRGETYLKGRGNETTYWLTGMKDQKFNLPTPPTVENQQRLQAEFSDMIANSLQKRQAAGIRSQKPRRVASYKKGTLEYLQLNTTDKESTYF

C[C@@H]1NC(=O)[C@@H]2CCCN2C(=O)[C@H](CC(N)=O)NC(=O)[C@@H]2CSSC[C@H](N)C(=O)N[C@H]3CSSC[C@H](NC1=O)C(=O)N[C@@H]([C@@H](C)O)C(=O)NCC(=O)N[C@H](C(=O)N[C@@H](Cc1ccc(O)cc1)C(=O)O)CSSC[C@H](NC(=O)[C@H](Cc1ccc(O)cc1)NC(=O)[C@H](CCC(=O)O)NC3=O)C(=O)N2 [SEQ ID No. 1, Cys-Cys-Glu-Tyr-Cys-Cys-Asn-Pro-Ala-Cys-Thr-Gly-Cys-Tyr] (H-CCEYCCNPACTGCY-OH; disulfide 1-6, 2-10, 5-13)
cGMP in human intestinal cells [1]: increased cGMP | amount of SEQ ID NO. 1 able to be dissolved ([2]; IPA 0 v/v % in water): 1.3 mg/mL | amount of SEQ ID NO. 1 able to be dissolved ([2]; IPA 5 v/v % in water): 1.8 mg/mL | amount of SEQ ID NO. 1 able to be dissolved ([2]; IPA 10 v/v % in water): 2.3 mg/mL | amount of SEQ ID NO. 1 able to be dissolved ([2]; IPA 15 v/v % in water): 3.3 mg/mL | amount of SEQ ID NO. 1 able to be dissolved ([2]; IPA 20 v/v % in water): 4.3 mg/mL | amount of SEQ ID NO. 1 able to be dissolved ([2]; IPA 25 v/v % in water): 4.8 mg/mL | amount of SEQ ID NO. 1 able to be dissolved ([2]; IPA 30 v/v % in water): 6.0 mg/mL | amount of SEQ ID NO. 1 able to be dissolved ([2]; IPA 35 v/v % in water): 7.0 mg/mL | amount of SEQ ID NO. 1 able to be dissolved ([2]; IPA 40 v/v % in water): 13.8 mg/mL | amount of SEQ ID NO. 1 able to be dissolved ([2]; IPA 45 v/v % in water): 47.8 mg/mL | amount of SEQ ID NO. 1 able to be dissolved ([2]; IPA 50 v/v % in water): 120.3 mg/mL | amount of SEQ ID NO. 1 able to be dissolved ([2]; IPA 55 v/v % in water): 162.5 mg/mL | amount of SEQ ID NO. 1 able to be dissolved ([2]; IPA 60 v/v % in water): 138.5 mg/mL | amount of SEQ ID NO. 1 able to be dissolved ([2]; IPA 65 v/v % in water): 106.5 mg/mL | amount of SEQ ID NO. 1 able to be dissolved ([2]; IPA 70 v/v % in water): 65.7 mg/mL | amount of SEQ ID NO. 1 able to be dissolved ([2]; IPA 75 v/v % in water): 26.5 mg/mL | amount of SEQ ID NO. 1 able to be dissolved ([2]; IPA 80 v/v % in water): 19.0 mg/mL | amount of SEQ ID NO. 1 able to be dissolved ([2]; IPA 85 v/v % in water): 12.5 mg/mL | amount of SEQ ID NO. 1 able to be dissolved ([2]; IPA 90 v/v % in water): 9.0 mg/mL | amount of SEQ ID NO. 1 able to be dissolved ([2]; IPA 95 v/v % in water): 4.5 mg/mL | amount of SEQ ID NO. 1 able to be dissolved ([2]; IPA 100 v/v %): 0.3 mg/mL | amount of SEQ ID NO. 1 able to be dissolved ([3]; EtOH 0 v/v % in water): 0.50 mg/mL | amount of SEQ ID NO. 1 able to be dissolved ([3]; EtOH 5 v/v % in water): 0.25 mg/mL | amount of SEQ ID NO. 1 able to be dissolved ([3]; EtOH 10 v/v % in water): 0.75 mg/mL | amount of SEQ ID NO. 1 able to be dissolved ([3]; EtOH 15 v/v % in water): 1.00 mg/mL | amount of SEQ ID NO. 1 able to be dissolved ([3]; EtOH 20 v/v % in water): 0.75 mg/mL | amount of SEQ ID NO. 1 able to be dissolved ([3]; EtOH 25 v/v % in water): 3.00 mg/mL | amount of SEQ ID NO. 1 able to be dissolved ([3]; EtOH 30 v/v % in water): 3.00 mg/mL | amount of SEQ ID NO. 1 able to be dissolved ([3]; EtOH 35 v/v % in water): 2.75 mg/mL | amount of SEQ ID NO. 1 able to be dissolved ([3]; EtOH 40 v/v % in water): 2.25 mg/mL | amount of SEQ ID NO. 1 able to be dissolved ([3]; EtOH 45 v/v % in water): 3.50 mg/mL | amount of SEQ ID NO. 1 able to be dissolved ([3]; EtOH 50 v/v % in water): 9.25 mg/mL | amount of SEQ ID NO. 1 able to be dissolved ([3]; EtOH 55 v/v % in water): 179.25 mg/mL | amount of SEQ ID NO. 1 able to be dissolved ([3]; EtOH 60 v/v % in water): 347.50 mg/mL | amount of SEQ ID NO. 1 able to be dissolved ([3]; EtOH 65 v/v % in water): 430.00 mg/mL | amount of SEQ ID NO. 1 able to be dissolved ([3]; EtOH 70 v/v % in water): 441.50 mg/mL | amount of SEQ ID NO. 1 able to be dissolved ([3]; EtOH 75 v/v % in water): 304.00 mg/mL | amount of SEQ ID NO. 1 able to be dissolved ([3]; EtOH 80 v/v % in water): 45.25 mg/mL | amount of SEQ ID NO. 1 able to be dissolved ([3]; EtOH 85 v/v % in water): 10.25 mg/mL | amount of SEQ ID NO. 1 able to be dissolved ([3]; EtOH 90 v/v % in water): 10.00 mg/mL | amount of SEQ ID NO. 1 able to be dissolved ([3]; EtOH 95 v/v % in water): 3.75 mg/mL | amount of SEQ ID NO. 1 able to be dissolved ([3]; EtOH 100 v/v %): 0.50 mg/mL | effects on small bowel motility, fluid secretion and visceral pain [4]: promising effects on increasing small bowel motility, fluid secretion and decreasing visceral pain
